Results as given in US11976069B2, “Inhibitors of histone deacetylase useful for the treatment or prevention of HIV infection” (Merck Sharp & Dohme LLC, priority 2019, dated 2024).
pIC50: −log10 of the molar value. Where two headings read alike, the source gives them in different places.

Legend:
Assay type in all cases: biochemical
HDAC1 = molecular target: T1, HDAC1 (Homo sapiens, UniProt Q13547); assay: HDAC1 inhibition, modified Fluor-de-Lys assay; details: 3 h pre-incubation, 0.3 nM enzyme, 20 μM substrate BML-KI104; read-out: HDAC-1 IC50
T1 construct: FLAG (C)
T1 sequence (Q13547 whole entry): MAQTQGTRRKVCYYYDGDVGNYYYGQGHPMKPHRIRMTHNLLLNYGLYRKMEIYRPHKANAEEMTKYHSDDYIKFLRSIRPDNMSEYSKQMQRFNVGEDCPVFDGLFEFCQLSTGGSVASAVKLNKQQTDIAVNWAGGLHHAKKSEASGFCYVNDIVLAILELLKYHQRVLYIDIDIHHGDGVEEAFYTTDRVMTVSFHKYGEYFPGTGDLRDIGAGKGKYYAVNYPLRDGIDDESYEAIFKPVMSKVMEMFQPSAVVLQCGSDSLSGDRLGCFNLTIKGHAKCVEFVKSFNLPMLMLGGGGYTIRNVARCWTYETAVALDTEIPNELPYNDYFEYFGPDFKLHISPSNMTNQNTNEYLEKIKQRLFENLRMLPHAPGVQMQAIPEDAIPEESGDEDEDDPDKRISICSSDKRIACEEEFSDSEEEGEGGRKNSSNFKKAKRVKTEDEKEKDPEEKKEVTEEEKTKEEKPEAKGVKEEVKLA
Procedure: (§1) Human HDAC Enzyme Inhibitor FLUOR-DE-LYS Assay Materials
(§2) Recombinant human HDAC1, HDAC2, and HDAC3/SMRT heterodimer were prepared by Merck Research Laboratories. […] The eluted protein was then passed over an anti-HDAC1 immunoaffinity column to remove any complexes containing HDAC1. […]
(§3) The histone deacetylase activities of HDAC1, HDAC2, HDAC3, HDAC6, and HDAC8 were measured in modified Fluor-de-Lys assays in 384-well format. In this assay, HDAC enzymes are initially incubated with an ε-acetyl (or -trifluoroacetyl)-L-lysine-containing substrate with a C-terminal amide having aminomethylcoumarin as the amine component. HDACs cleave the ε-acetyl group, rendering the resulting product susceptible to AMC cleavage by trypsin. The released AMC is then detected by its fluorescence.
(§4) The HDAC 1, 2 assays employed buffer A, which contained 20 mM HEPES, pH 8.0, 1 mM MgCl2, 137 mM NaCl, 2.7 mM KCl, 0.05% BSA. The HDAC3/SMRT assay employed buffer B, consisting of 20 mM HEPES, pH 8.0, 1 mM MgCl2, 50 mM NaCl, 2.7 mM KCl, 0.05% BSA, 0.005% Tween 20, and 10 μM IP4. The HDAC6 assay employed buffer C, consisting of 20 mM HEPES, pH 8.0, 1 mM MgCl2, 137 mM NaCl, 2.7 mM KCl, 0.5 mM TCEP (Calbiochem) and 0.05% BSA. The HDAC8 assay employed buffer D, consisting of 20 mM HEPES, pH 8.0, 1 mM MgCl2, 100 mM NaCl, 20 mM KCl, 0.1% n-octyl-β-D-glucoside (Anatrace, Maumee, Ohio) and 0.05% BSA. All steps were performed at room temperature (23° C.). The assay was performed by pre-incubating serial dilutions of test compounds with the target HDAC prior to initiation with substrate. Each compound was titrated in a 10-point dose response, using a 1:3 fold dilution scheme, with 0.15 ul of solution added by ECHO555 to the plate, followed by the addition of 20 μl of the appropriate HDAC isoform diluted in appropriate assay buffer. […] Final conditions used for each assay were: 1. HDAC 1, 0.3 nM total enzyme, 20 μM substrate BML-KI104; 2. HDAC 2, 1.5 nM total enzyme, 40 μM substrate BML-KI104; 3. HDAC 3/SMRT, 0.3 nM total enzyme, 20 μM substrate BML-KI104; 4. HDAC 6, 1.3 nM total enzyme, 2.5 μM substrate BML-KI104; 5. HDAC 8, 1.3 nM total enzyme, 200 μM substrate BML-KI178; the final high dose of test compound was 30 μM. For potent compounds, 900 nM was used as the final high dose. The reactions were stopped and developed by addition of 30 ul of HDAC developer solution containing a saturating level of HDAC inhibitor as follows: 1.

HDAC2 = molecular target: T2, HDAC2 (Homo sapiens, UniProt Q92769); assay: HDAC2 inhibition, modified Fluor-de-Lys assay; details: 3 h pre-incubation, […] enzyme, 40 μM substrate BML-KI104; read-out: HDAC-2 IC50
T2 construct: Full length human HDAC2-FLAG was expressed in baculovirus infected Sf9 cells; FLAG (C); host or cells: baculovirus infected Sf9 cells
T2 sequence (Q92769 whole entry): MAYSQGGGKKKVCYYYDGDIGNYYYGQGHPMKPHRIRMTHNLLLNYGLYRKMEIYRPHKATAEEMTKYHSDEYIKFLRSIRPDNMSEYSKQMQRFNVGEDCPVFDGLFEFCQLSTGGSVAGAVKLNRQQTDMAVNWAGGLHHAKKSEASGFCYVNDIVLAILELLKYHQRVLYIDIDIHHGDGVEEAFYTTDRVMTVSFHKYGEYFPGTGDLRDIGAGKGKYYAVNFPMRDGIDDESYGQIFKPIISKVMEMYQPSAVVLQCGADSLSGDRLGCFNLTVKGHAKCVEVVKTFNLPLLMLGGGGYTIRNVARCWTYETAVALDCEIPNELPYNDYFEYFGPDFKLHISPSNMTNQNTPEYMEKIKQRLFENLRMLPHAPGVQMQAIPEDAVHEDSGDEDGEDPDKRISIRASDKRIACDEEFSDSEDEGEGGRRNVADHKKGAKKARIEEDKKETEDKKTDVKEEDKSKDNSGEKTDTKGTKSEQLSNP
Procedure: as §1, §2, §3, §4

HDAC3/SMRT heterodimer = molecular target: T3, HDAC3/SMRT heterodimer (Homo sapiens, UniProt O15379); assay: HDAC3/SMRT inhibition, modified Fluor-de-Lys assay; details: 3 h pre-incubation, 0.3 nM enzyme, 20 μM substrate BML-KI104, read-out: HDAC-3 IC50
T3 construct: FLAG (C)
T3 sequence (O15379 whole entry): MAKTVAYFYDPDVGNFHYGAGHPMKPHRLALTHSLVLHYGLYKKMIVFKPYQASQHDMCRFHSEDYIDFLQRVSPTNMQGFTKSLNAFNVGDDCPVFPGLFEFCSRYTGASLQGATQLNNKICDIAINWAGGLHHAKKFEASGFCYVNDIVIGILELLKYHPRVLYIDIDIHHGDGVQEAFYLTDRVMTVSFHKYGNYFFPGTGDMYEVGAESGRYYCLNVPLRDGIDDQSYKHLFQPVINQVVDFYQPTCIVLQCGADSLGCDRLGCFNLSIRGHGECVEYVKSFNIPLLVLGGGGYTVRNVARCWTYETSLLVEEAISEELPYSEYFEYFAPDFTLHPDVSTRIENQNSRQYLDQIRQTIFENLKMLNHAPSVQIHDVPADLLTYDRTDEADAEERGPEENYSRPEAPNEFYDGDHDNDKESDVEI
T3 sequence (Q9Y618 1-899 partner limits assumed): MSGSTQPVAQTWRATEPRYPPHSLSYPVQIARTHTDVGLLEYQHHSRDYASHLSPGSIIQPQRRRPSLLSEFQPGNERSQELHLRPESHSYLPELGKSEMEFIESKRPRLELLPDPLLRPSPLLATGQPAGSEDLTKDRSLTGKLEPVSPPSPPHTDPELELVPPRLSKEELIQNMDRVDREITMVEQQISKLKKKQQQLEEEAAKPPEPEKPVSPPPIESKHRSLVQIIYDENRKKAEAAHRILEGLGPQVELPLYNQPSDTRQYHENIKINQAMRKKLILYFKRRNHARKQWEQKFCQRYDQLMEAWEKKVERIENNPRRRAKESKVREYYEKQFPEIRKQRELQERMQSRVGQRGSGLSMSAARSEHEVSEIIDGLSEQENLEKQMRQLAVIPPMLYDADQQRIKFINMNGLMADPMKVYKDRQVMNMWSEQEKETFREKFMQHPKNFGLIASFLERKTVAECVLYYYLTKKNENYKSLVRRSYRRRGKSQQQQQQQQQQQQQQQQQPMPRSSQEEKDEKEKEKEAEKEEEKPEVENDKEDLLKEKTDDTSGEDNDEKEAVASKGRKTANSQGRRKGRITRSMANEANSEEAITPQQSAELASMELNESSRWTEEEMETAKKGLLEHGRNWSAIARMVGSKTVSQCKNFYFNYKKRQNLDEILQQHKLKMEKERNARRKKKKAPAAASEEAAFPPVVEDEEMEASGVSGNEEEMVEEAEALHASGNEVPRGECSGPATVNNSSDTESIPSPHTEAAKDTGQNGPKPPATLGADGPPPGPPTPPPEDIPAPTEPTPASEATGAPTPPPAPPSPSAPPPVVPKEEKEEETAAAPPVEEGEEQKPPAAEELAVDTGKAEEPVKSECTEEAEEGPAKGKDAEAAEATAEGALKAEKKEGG
Procedure: as §1, §2, §3, §4

HDAC6 = molecular target: T4, HDAC6 (Homo sapiens, UniProt Q9UBN7); assay: HDAC6 inhibition, modified Fluor-de-Lys assay; details: 3 h pre-incubation, read-out: HDAC-6 IC50
T4 sequence (Q9UBN7 1-1215): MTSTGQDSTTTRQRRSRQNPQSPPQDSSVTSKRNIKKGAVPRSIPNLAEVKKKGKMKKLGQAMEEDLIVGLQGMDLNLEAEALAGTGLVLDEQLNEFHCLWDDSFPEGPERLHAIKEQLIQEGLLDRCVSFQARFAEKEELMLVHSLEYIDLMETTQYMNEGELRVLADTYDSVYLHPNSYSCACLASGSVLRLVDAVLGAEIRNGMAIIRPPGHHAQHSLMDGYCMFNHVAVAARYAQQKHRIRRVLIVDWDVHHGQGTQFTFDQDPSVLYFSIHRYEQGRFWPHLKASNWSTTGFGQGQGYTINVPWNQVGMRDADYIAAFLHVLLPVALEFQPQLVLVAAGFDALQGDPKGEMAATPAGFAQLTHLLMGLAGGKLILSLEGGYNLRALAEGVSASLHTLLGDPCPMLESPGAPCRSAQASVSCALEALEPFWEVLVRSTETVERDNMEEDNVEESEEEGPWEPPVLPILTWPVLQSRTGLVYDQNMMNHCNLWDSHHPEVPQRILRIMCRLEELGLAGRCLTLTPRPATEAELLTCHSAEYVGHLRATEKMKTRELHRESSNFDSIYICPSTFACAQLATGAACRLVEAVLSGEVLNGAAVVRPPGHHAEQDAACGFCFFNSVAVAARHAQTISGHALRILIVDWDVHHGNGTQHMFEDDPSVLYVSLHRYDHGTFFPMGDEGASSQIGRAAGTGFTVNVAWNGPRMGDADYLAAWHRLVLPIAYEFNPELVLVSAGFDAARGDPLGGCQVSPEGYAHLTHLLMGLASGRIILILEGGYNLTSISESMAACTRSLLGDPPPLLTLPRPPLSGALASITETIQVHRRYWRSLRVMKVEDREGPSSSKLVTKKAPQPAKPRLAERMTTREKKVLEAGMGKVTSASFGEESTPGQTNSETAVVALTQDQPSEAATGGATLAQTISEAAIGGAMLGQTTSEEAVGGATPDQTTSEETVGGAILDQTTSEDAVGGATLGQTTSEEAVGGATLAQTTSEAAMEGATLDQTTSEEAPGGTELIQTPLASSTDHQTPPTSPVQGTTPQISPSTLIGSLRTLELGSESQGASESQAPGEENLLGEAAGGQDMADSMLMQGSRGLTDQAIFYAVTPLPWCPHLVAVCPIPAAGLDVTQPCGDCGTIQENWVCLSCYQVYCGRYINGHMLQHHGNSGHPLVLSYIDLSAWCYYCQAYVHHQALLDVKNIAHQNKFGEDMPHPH
Procedure: as §1, §3, §4

[1] = 1.3 nM enzyme, 2.5 μM substrate BML-KI104
[2] = […] enzyme, […] substrate BML-KI104

## CCC(=O)CCCCC[C@H](NC(=O)[C@H]1CC12CCN(CC)CC2)c1[nH]c2nc1C(=O)NCCC/C=C\c1cccc-2c1 [Compound 14, (1S)-6-ethyl-N-{(1S)-7-oxo-1-[(11Z)-6-oxo-3,7,18-triazatricyclo[11.3.1.1~2,5~]octadeca-1(17),2(18),4,11,13,15-hexaen-4-yl]nonyl}-6-azaspiro[2.5]octane-1-carboxamide]
HDAC1
  pIC50: 6.88
HDAC2
  pIC50: 6.24
HDAC3/SMRT heterodimer
  pIC50: 6.95
HDAC6; [1]
  pIC50: < 7.05

## CCC(=O)CCCCC[C@H](NC(=O)[C@H]1CC12CCN(CC)CC2)c1[nH]c2nc1C(=O)NCCC/C=C/c1cccc-2c1 [Compound 15, (1S)-6-ethyl-N-{(1S)-7-oxo-1-[(11E)-6-oxo-3,7,18-triazatricyclo[11.3.1.1~2,5~]octadeca-1(17),2(18),4,11,13,15-hexaen-4-yl]nonyl}-6-azaspiro[2.5]octane-1-carboxamide]
HDAC1
  pIC50: 7.68
HDAC2
  pIC50: 6.65
HDAC3/SMRT heterodimer
  pIC50: 7.74
HDAC6; [1]
  pIC50: < 6.05

## (11S,4S)-4-(6-oxooctyl)-61,62-dihydro-3-aza-5(2,5)-oxazola-6(6,1)-quinolina-12(4,1)-piperidina-1(1,2)-cyclopropanadodecaphane-62,2-dione [Compound 8]
HDAC1
  pIC50: 7.38
HDAC2
  pIC50: 6.54
HDAC3/SMRT heterodimer
  pIC50: 6.89
HDAC6; [2]
  pIC50: < 6.05

## CCC(=O)CCCCCC1NC(=O)C2CC2N2CCC(CCCCCn3c(=O)ccc4cc(ccc43)-c3cnc1o3)CC2 [Compound 7, (11S,4S)-4-(6-oxooctyl)-61,62-dihydro-3-aza-5(2,5)-oxazola-6(6,1)-quinolina-12(4,1)-piperidina-1(1,2)-cyclopropanadodecaphane-62,2-dione]
HDAC1
  pIC50: 7.80
HDAC2
  pIC50: 6.59
HDAC3/SMRT heterodimer
  pIC50: 7.24
HDAC6; [2]
  pIC50: 6.07

## CCC(=O)CCCCC[C@@H]1NC(=O)[C@H]2CC23CCN(CCCCCCCCn2ccc4cc(c(OC)cc4c2=O)-c2cnc1[nH]2)CC3 [Compound 5, (1^1S,4S)-6^7-methoxy-4-(6-oxooctyl)-6^1,6^2-dihydro-5^1H-3-aza-6(6,2)-isoquinolina-15(4,1)-piperidina-5(2,5)-imidazola-1(1,2)-cyclopropanapentadecaphane-6^1,2-dione]
HDAC1
  pIC50: 9.96
HDAC2
  pIC50: 9.51
HDAC3/SMRT heterodimer
  pIC50: 9.89
HDAC6; [2]
  pIC50: 6.66

## CCC(=O)CCCCC[C@@H]1NC(=O)[C@H]2CC23CCN(CCCOCCCn2ccc4cc(ccc4c2=O)-c2cnc1[nH]2)CC3 [Compound 12, (3S,6S)-6-(6-oxooctyl)-22-oxa-5,8,18,26,33-pentaazahexacyclo[24.2.2.1˜7,10˜0.1˜11,15˜0.1˜14,18˜0.0˜1,3˜]tritriaconta-7,9,11(32),12,14,16-hexaene-4,31-dione]
HDAC1
  pIC50: 9.48
HDAC2
  pIC50: 8.07
HDAC3/SMRT heterodimer
  pIC50: 9.49
